In US9221822B2, “Thiazolopyrimidine modulators as immunosuppressive agents” (Katholieke Universiteit Leuven, K.U.Leuven R&D, priority 2009, dated 2015) one finds IC50 data, which are given here for 34 molecules.

As a reminder, the IC50 is the concentration at which inhibition is half-maximal. A lower IC50 goes with greater potency in that assay.

The subject of this experiment is Human peripheral blood mononuclear cells (PBMCs) as Responder cells, RPMI 1788 Stimulator cells. As to the kind of experiment: Mixed Lymphocyte Reaction (MLR) test. It counts as cell-based. Particulars: Homo sapiens, RPMI-1788, lowest concentration giving 50% inhibition of the MLR; 6 days coculture, 3H-thymidine incorporation. In outline: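 Human PBMC responders (0.12×10^6) were cocultured 6 days with mitomycin C-treated RPMI 1788 stimulators (0.045×10^6) and compound in RPMI 1640 with 10% FCS, in triplicate. A ^3H-thymidine pulse on day 5, harvested 18 h later, measured proliferation (cpm), converted to % inhibition versus a compound-free MLR.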
On the technique in general: Incorporation of labelled thymidine or its analogues reports DNA synthesis.

As for `Nc1nc(N2CCN(C(=O)COc3cccc([N+](=O)[O-])c3)CC2)c2nc(-c3ccc(F)cc3)sc2n1` [Example 129, 5-amino-2-(4-fluorophenyl)-7-(4-[2-(3-nitrophenoxy)acetyl]-piperazin-1-yl)-thiazolo[5,4-d]pyrimidine], the IC50 came to 0.29 µM.

Take `CSc1nc2c(N3CCN(C(=O)COc4ccc(Cl)cc4)CC3)nc(N)nc2s1` [Example 115, 5-amino-7-[4-(4-chlorophenoxyacetyl)piperazin-1-yl]-2-methylthio-thiazolo[5,4-d]pyrimidine]: the half-inhibitory concentration (IC50) was above 10 µM.

With `Cc1ccc(CCc2nc3c(N4CCN(C(=O)COc5ccc(Cl)cc5)CC4)nc(N)nc3s2)cc1` [Example 260, 1-(4-(5-amino-2-(4-methylphenethyl)thiazolo[5,4-d]pyrimidin-7-yl)piperazin-1-yl)-2-(4-chlorophenoxy)ethanone], inhibition was half-maximal at 0.82 µM (IC50). On to `Nc1nc(N2CCOCC2)c2nc(-c3ccc(F)cc3)sc2n1` [Example 33, 2-(4-fluorophenyl)-7-morpholino-thiazolo[5,4-d]pyrimidin-5-amine], for which the IC50 is above 10 µM. For the molecule `Nc1nc(N2CCC(C(=O)c3ccccc3)CC2)c2cc(-c3ccc(F)cc3)sc2n1` [Example 348, (1-(2-amino-6-(4-fluorophenyl)thieno[2,3-d]pyrimidin-4-yl)piperidin-4-yl)(phenyl)methanone], inhibition was half-maximal at 8.27 µM (IC50). For `Nc1nc(N2CCN(C(=O)COc3ccc(Cl)cc3)CC2)c2nc(Nc3ccc(F)cc3)sc2n1` [Example 127, 5-amino-7-[4-(4-chlorophenoxyacetyl)piperazin-1-yl]-2-(4-fluorophenylamino)-thiazolo[5,4-d]pyrimidine], the half-maximal inhibitory concentration (IC50) is 6.77 µM.

On to `Nc1nc(N2CCN(C(=O)Nc3ccc(Cl)cc3)CC2)c2nc(-c3cccnc3)sc2n1` [Example 277, 4-(5-amino-2-(pyridin-3-yl)thiazolo[5,4-d]pyrimidin-7-yl)-N-(4-chlorophenyl)piperazine-1-carboxamide], for which the 50% inhibitory concentration (IC50) was determined as 0.024 µM. `Nc1nc(N2CCN(S(=O)(=O)Cc3ccccc3)CC2)c2nc(CCc3ccc(F)cc3)sc2n1` [Example 137, 5-amino-2-[2-(4-fluorophenyl)ethyl]-7-[4-phenylmethanesulfonylpiperazin-1-yl]-thiazolo[5,4-d]pyrimidine] yielded a half-maximal inhibitory concentration (IC50) of 6.68 µM. Consider `Cc1cccc(NC(=O)N2CCN(c3nc(N)nc4sc(-c5ccc(F)cc5)nc34)CC2)c1` [Example 43, 4-(5-amino-2-(4-fluorophenyl)thiazolo[5,4-d]pyrimidin-7-yl)-N-m-tolylpiperazine-1-carboxamide], for which the midpoint of inhibition, the IC50, lay at 0.3 µM. With `Nc1nc(N2CCN(CCOc3ccccc3)CC2)c2nc(CCc3ccc(F)cc3)oc2n1` [Example 197, 5-amino-2-[2-(4-fluorophenyl)ethyl]-7-(4-(2-phenoxyethyl)piperazin-1-yl)-oxazolo[5,4-d]pyrimidine], half-maximal inhibition (IC50) required 1.95 µM. For `Cc1cccc(NC(=O)N2CCN(c3nc(N)nc4sc(CCc5cccs5)nc34)CC2)c1` [Example 157, 5-amino-2-(2-thiophen-2-ylethyl)-7-(4-m-tolylcarbamoylpiperazin-1-yl)thiazolo[5,4-d]pyrimidine] the value was 0.63 µM.

`Nc1nc(N2CCCN(C(=O)COc3ccc(Cl)cc3)CC2)c2nc(-c3ccc(F)cc3)[nH]c2n1` [Example 421, 1-(4-(2-amino-8-(4-fluorophenyl)-9H-purin-6-yl)-1,4-diazepan-1-yl)-2-(4-chlorophenoxy)ethanone] returned an IC50 of 3.71 µM.

`Cc1ccc(-c2nc3c(N4CCN(C(=O)COc5ccc(Cl)cc5)CC4)nc(N)nc3[nH]2)cc1` [Example 396, 1-(4-(2-amino-8-p-tolyl-9H-purin-6-yl)piperazin-1-yl)-2-(4-chlorophenoxy)ethanone] registered an IC50 of 0.47 µM.

With `Nc1nc(N2CCN(C(=O)c3ccc(Cl)cc3)CC2)c2nc(CCc3cccs3)sc2n1` [Example 156, 5-amino-2-(2-thiophen-2-ylethyl)-7-(4-(4-chloro-benzoyl)piperazin-1-yl)thiazolo[5,4-d]pyrimidine], the half-inhibitory concentration (IC50) is above 10 µM. To `Nc1nc(N2CCN(C(=O)COc3ccc(OC(F)(F)F)cc3)CC2)c2nc(CCc3ccc(F)cc3)sc2n1` [Example 226, 1-(4-(5-amino-2-(4-fluorophenethyl)thiazolo[5,4-d]pyrimidin-7-yl)piperazin-1-yl)-2-(4-(trifluoromethoxy)phenoxy)ethanone] belongs 7.12 µM; to `Nc1nc(N2CCN(C(=O)COc3ccc(Cl)cc3)CC2)c2cc(-c3ccccc3)sc2n1` [Example 329, 1-(4-(2-amino-6-phenylthieno[2,3-d]pyrimidin-4-yl)piperazin-1-yl)-2-(4-chlorophenoxy)ethanone], 0.33 µM.

`Nc1nc(N2CCN(C(=O)COc3ccccc3)CC2)c2nc(CCc3ccc(F)cc3)sc2n1` [Example 134, 5-amino-2-[2-(4-fluorophenyl)ethyl]-7-(4-[2-phenoxyacetyl]piperazin-1-yl)-thiazolo[5,4-d]pyrimidine] gave an IC50 of 4.92 µM. For `Nc1nc(N2CCCN(C(=O)COc3ccc(Cl)cc3)CC2)c2cc(-c3ccccc3)sc2n1` [Example 334, 1-(4-(2-amino-6-phenylthieno[2,3-d]pyrimidin-4-yl)-1,4-diazepan-1-yl)-2-(4-chlorophenoxy)ethanone] the value was 8.83 µM. `COc1ccc(OCC(=O)N2CCN(c3nc(N)nc4sc(CCc5ccc(Br)cc5)nc34)CC2)cc1` [Example 298, 1-(4-(5-amino-2-(4-bromophenethyl)thiazolo[5,4-d]pyrimidin-7-yl)piperazin-1-yl)-2-(4-methoxyphenoxy)ethanone] displayed an IC50 of 1.19 µM. `Nc1nc(N2CCN(C(=O)Cc3ccc(Cl)cc3)CC2)c2nc(CCc3cccs3)sc2n1` [Example 155, 5-amino-2-(2-thiophen-2-ylethyl)-7-(4-[2-(4-chloro-phenyl)acetyl]piperazin-1-yl)thiazolo[5,4-d]pyrimidine] displayed an IC50 above 10 µM. For the molecule `Cc1nc(N2CCN(C(=O)COc3ccc(Cl)cc3)CC2)c2cc(-c3ccc(F)cc3)sc2n1` [Example 325, 2-(4-chlorophenoxy)-1-(4-(6-(4-fluorophenyl)-2-methylthieno[2,3-d]pyrimidin-4-yl)piperazin-1-yl)ethanone], inhibition was half-maximal at 3.39 µM (IC50). Molecule `Nc1nc(N2CCN(C(=O)COc3ccc(Cl)cc3)CC2)c2ccsc2n1` [Example 351, 1-(4-(2-aminothieno[2,3-d]pyrimidin-4-yl)piperazin-1-yl)-2-(4-chlorophenoxy)ethanone] registered a 50% inhibitory concentration (IC50) of 1.23 µM.

With `Nc1nc(N2CCN(C(=O)COc3ccc(Br)cc3)CC2)c2nc(CCc3ccc(F)cc3)sc2n1` [Example 52, 1-(4-(5-amino-2-(4-fluorophenethyl)thiazolo[5,4-d]pyrimidin-7-yl)piperazin-1-yl)-2-(4-bromophenoxy)ethanone], the IC50 was above 10 µM. In turn, `Nc1nc(N2CCN(C(=O)COc3ccc(Cl)cc3)CC2)c2nc(C3(c4ccccc4)CC3)sc2n1` [Example 114, 5-amino-7-[4-(4-chlorophenoxyacetyl)piperazin-1-yl]-2-(1-phenylcyclopropyl)thiazolo[5,4-d]pyrimidine] gave a half-inhibitory concentration (IC50) of 1.56 µM. `Nc1nc(N2CCN(C(=O)COc3ccc(Cl)cc3)CC2)c2nc(CCc3ccc(F)cc3)oc2n1` [Example 172, 1-(4-(5-amino-2-(4-fluorophenethyl)oxazolo[5,4-d]pyrimidin-7-yl)piperazin-1-yl)-2-(4-chlorophenoxy)ethanone] came in with an IC50 of 0.8 µM. `O=C(COc1ccc(Cl)cc1)N1CCN(c2ncnc3sc(-c4ccc(F)cc4)nc23)CC1` [Example 301, 1-(4-(2-(4-fluorophenyl)thiazolo[5,4-d]pyrimidin-7-yl)piperazin-1-yl)-2-(4-chlorophenoxy)ethanone] displayed an IC50 of 0.67 µM. For `Nc1nc(N2CCN(C(=O)COc3ccc(Cl)cc3)CC2)c2nc(CCc3ccccc3)oc2n1` [Example 189, 5-amino-2-(2-phenylethyl)-7-[4-(4-chlorophenoxyacetyl)piperazin-1-yl]oxazolo[5,4-d]pyrimidine] the value was 5.53 µM; for `CC(C)(C)c1nc2c(N3CCN(C(=O)COc4ccc(Cl)cc4)CC3)nc(N)nc2[nH]1` [Example 399, 1-(4-(2-amino-8-tert-butyl-9H-purin-6-yl)piperazin-1-yl)-2-(4-chlorophenoxy)ethanone], 6.31 µM; for `Nc1nc(N2CCN(C(=O)COc3cccc([N+](=O)[O-])c3)CC2)c2nc(CCc3ccc(F)cc3)sc2n1` [Example 131, 5-amino-2-[2-(4-fluorophenyl)ethyl]-7-(4-[2-(3-nitrophenoxy)acetyl]piperazin-1-yl)-thiazolo[5,4-d]pyrimidine], 3.25 µM.

`Nc1nc(N2CCN(C(=O)COc3ccc(F)cc3)CC2)c2cc(-c3ccccc3)sc2n1` [Example 370, 1-(4-(2-amino-6-phenylthieno[2,3-d]pyrimidin-4-yl)piperazin-1-yl)-2-(4-fluorophenoxy)ethanone] returned an IC50 of 0.066 µM. For `Nc1nc(N2CCN(Cc3ccccc3)CC2)c2nc(-c3ccc(F)cc3)sc2n1` [Example 39, 7-(4-benzylpiperazin-1-yl)-2-(4-fluorophenyl)thiazolo[5,4-d]pyrimidin-5-amine], the IC50 is above 10 µM. To `Cc1cccc(NC(=O)N2CCN(c3nc(N)nc4sc(-c5ccccc5)nc34)CC2)c1` [Example 220, 4-(5-amino-2-phenylthiazolo[5,4-d]pyrimidin-7-yl)-N-m-tolylpiperazine-1-carboxamide] belongs 0.17 µM.

`Cc1cccc(NC(=O)N2CCN(c3nc(N)nc4oc(CCc5ccc(F)cc5)nc34)CC2)c1` [Example 196, 5-amino-2-[2-(4-fluorophenyl)ethyl]-7-(4-m-tolylcarbamoylpiperazin-1-yl)-oxazolo[5,4-d]pyrimidine] registered a 50% inhibitory concentration (IC50) of 3.97 µM.

For the molecule `Nc1nc(N2CCCN(C(=O)c3ccc(Cl)cc3)CC2)c2cc(-c3ccccc3)sc2n1` [Example 335, (4-(2-amino-6-phenylthieno[2,3-d]pyrimidin-4-yl)-1,4-diazepan-1-yl)(4-chlorophenyl)methanone], the half-inhibitory concentration (IC50) was above 10 µM.
